Read-outs that look alike come from different tables or passages of the source.
How the values were obtained:
[1] = tested on: Key Broadleaf Weed and Crop Species; assay: Post-emergent Test II herbicidal activity (Table 15); format: in vivo; details: post-emergence, 336 h, 14 d; for pest or weed control at 35 g/ha: 35 g ai/ha; for pest or weed control at 70 g/ha: 70 g ai/ha; for pest or weed control at 140 g/ha: 140 g ai/ha
Outline: (§1)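 Post-emergence spray; seedlings 7-21 d old, 1st-2nd true leaf; 187 L/ha; serial rates 1×-1/16×; solvent blank controls; subirrigated; visual % injury at 14 d.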

[2] = tested on: Key Grass and Sedge Weeds as well as Grass Crops; assay: Post-emergent Test II herbicidal activity (Table 16); format: in vivo; details: post-emergence, 336 h, 14 d; for pest or weed control at 35 g/ha: 35 g ai/ha; for pest or weed control at 70 g/ha: 70 g ai/ha; for pest or weed control at 140 g/ha: 140 g ai/ha
Outline: as §1

[3] = Abutilon theophrasti, velvetleaf (Abutilon theophrasti), read-out: Visual Growth Reduction (%) 14 Days After Application, ABUTH
[4] = Amaranthus retroflexus, redroot pigweed (Amaranthus retroflexus), read-out: Visual Growth Reduction (%) 14 Days After Application, AMARE
[5] = Brassica napus, oilseed rape, canola (Brassica napus), read-out: Visual Growth Reduction (%) 14 Days After Application, BRSNN
[6] = Chenopodium album, lambsquarters (Chenopodium album), read-out: Visual Growth Reduction (%) 14 Days After Application, CHEAL
[7] = Euphorbia heterophylla, wild poinsettia (Euphorbia heterophylla), read-out: Visual Growth Reduction (%) 14 Days After Application, EPHHL
[8] = Helianthus annuus, sunflower (Helianthus annuus), read-out: Visual Growth Reduction (%) 14 Days After Application, HELAN
[9] = Cyperus esculentus, yellow nutsedge (Cyperus esculentus), read-out: Visual Growth Reduction (%) 14 Days After Application, CYPES
[10] = Echinochloa crus-galli, barnyardgrass (Echinochloa crus-galli), read-out: Visual Growth Reduction (%) 14 Days After Application, ECHCG
[11] = Oryza sativa, rice (Oryza sativa), read-out: Visual Growth Reduction (%) 14 Days After Application, ORYSA
[12] = Setaria faberi, giant foxtail (Setaria faberi), read-out: Visual Growth Reduction (%) 14 Days After Application, SETFA
[13] = Triticum aestivum, wheat, spring (Triticum aestivum), read-out: Visual Growth Reduction (%) 14 Days After Application, TRZAS
[14] = Zea mays, maize, corn (Zea mays), read-out: Visual Growth Reduction (%) 14 Days After Application, ZEAMX

Row | SMILES | pest or weed control at 35 g/ha [1, 3] | pest or weed control at 70 g/ha [1, 3] | pest or weed control at 140 g/ha [1, 3] | pest or weed control at 35 g/ha [1, 4] | pest or weed control at 70 g/ha [1, 4] | pest or weed control at 140 g/ha [1, 4] | pest or weed control at 35 g/ha [1, 5] | pest or weed control at 70 g/ha [1, 5] | pest or weed control at 140 g/ha [1, 5] | pest or weed control at 35 g/ha [1, 6] | pest or weed control at 70 g/ha [1, 6] | pest or weed control at 140 g/ha [1, 6] | pest or weed control at 35 g/ha [1, 7] | pest or weed control at 70 g/ha [1, 7] | pest or weed control at 140 g/ha [1, 7] | pest or weed control at 35 g/ha [1, 8] | pest or weed control at 70 g/ha [1, 8] | pest or weed control at 140 g/ha [1, 8] | pest or weed control at 35 g/ha [2, 9] | pest or weed control at 70 g/ha [2, 9] | other results
1 | Nc1cc(-c2ccc3cc[nH]c3c2)nc(C(=O)O)c1Cl [Compound 1.22] | 0 to 29% | 0 to 29% | 0 to 29% | 75 to 84% | 75 to 84% | 85 to 94% | 45 to 59% | 60 to 74% | 60 to 74% | 0 to 29% | 0 to 29% | 0 to 29% | 45 to 59% | 75 to 84% | 85 to 94% | 75 to 84% | 85 to 94% | 85 to 94% | 0 to 29% | 0 to 29% | pest or weed control at 140 g/ha [2, 9]: 0 to 29%; pest or weed control at 35 g/ha [2, 10]: 0 to 29%; pest or weed control at 70 g/ha [2, 10]: 0 to 29%; pest or weed control at 140 g/ha [2, 10]: 0 to 29%; pest or weed control at 35 g/ha [2, 11]: 0 to 29%; pest or weed control at 70 g/ha [2, 11]: 0 to 29%; pest or weed control at 140 g/ha [2, 11]: 0 to 29%; pest or weed control at 35 g/ha [2, 12]: 0 to 29%; pest or weed control at 70 g/ha [2, 12]: 60 to 74%; pest or weed control at 140 g/ha [2, 12]: 85 to 94%; pest or weed control at 35 g/ha [2, 13]: 0 to 29%; pest or weed control at 70 g/ha [2, 13]: 0 to 29%; pest or weed control at 140 g/ha [2, 13]: 0 to 29%; pest or weed control at 35 g/ha [2, 14]: 0 to 29%; pest or weed control at 70 g/ha [2, 14]: 0 to 29%; pest or weed control at 140 g/ha [2, 14]: 0 to 29%; melting point: 172 to 174 °C
2 | COC(=O)c1nc(-c2c(F)cc3cc[nH]c3c2F)cc(N)c1Cl [Compound 1.27, Methyl 4-amino-3-chloro-6-(5,7-difluoro-1H-indol-6-yl)picolinate] | 60 to 74% | 85 to 94% | 85 to 94% | 60 to 74% | 95 to 100% | 95 to 100% | 85 to 94% | 95 to 100% | 95 to 100% | 85 to 94% | 85 to 94% | 85 to 94% | 95 to 100% | 95 to 100% | 95 to 100% | 0 to 29% | 0 to 29% | 0 to 29% | 0 to 29% | 0 to 29% | pest or weed control at 140 g/ha [2, 9]: 0 to 29%; pest or weed control at 35 g/ha [2, 10]: 0 to 29%; pest or weed control at 70 g/ha [2, 10]: 0 to 29%; pest or weed control at 140 g/ha [2, 10]: 0 to 29%; pest or weed control at 35 g/ha [2, 11]: 0 to 29%; pest or weed control at 70 g/ha [2, 11]: 0 to 29%; pest or weed control at 140 g/ha [2, 11]: 0 to 29%; pest or weed control at 35 g/ha [2, 12]: 0 to 29%; pest or weed control at 70 g/ha [2, 12]: 0 to 29%; pest or weed control at 140 g/ha [2, 12]: 0 to 29%; pest or weed control at 35 g/ha [2, 13]: 0 to 29%; pest or weed control at 70 g/ha [2, 13]: 0 to 29%; pest or weed control at 140 g/ha [2, 13]: 0 to 29%; pest or weed control at 35 g/ha [2, 14]: 0 to 29%; pest or weed control at 70 g/ha [2, 14]: 0 to 29%; pest or weed control at 140 g/ha [2, 14]: 0 to 29%; melting point: 169 to 171 °C
3 | COC(=O)c1nc(-c2ccc3cc[nH]c3c2)c(C)c(N)c1Cl [Compound 1.28] | 85 to 94% | 85 to 94% | 95 to 100% | 0 to 29% | 0 to 29% | 60 to 74% | 75 to 84% | 85 to 94% | 85 to 94% | 45 to 59% | 60 to 74% | 60 to 74% | 0 to 29% | 0 to 29% | 0 to 29% | 95 to 100% | 95 to 100% | 95 to 100% | 0 to 29% | 0 to 29% | pest or weed control at 140 g/ha [2, 9]: 0 to 29%; pest or weed control at 35 g/ha [2, 10]: 0 to 29%; pest or weed control at 70 g/ha [2, 10]: 0 to 29%; pest or weed control at 140 g/ha [2, 10]: 0 to 29%; pest or weed control at 35 g/ha [2, 11]: 0 to 29%; pest or weed control at 70 g/ha [2, 11]: 0 to 29%; pest or weed control at 140 g/ha [2, 11]: 0 to 29%; pest or weed control at 35 g/ha [2, 12]: 0 to 29%; pest or weed control at 70 g/ha [2, 12]: 0 to 29%; pest or weed control at 140 g/ha [2, 12]: 0 to 29%; pest or weed control at 35 g/ha [2, 13]: 0 to 29%; pest or weed control at 70 g/ha [2, 13]: 30 to 44%; pest or weed control at 140 g/ha [2, 13]: 30 to 44%; pest or weed control at 35 g/ha [2, 14]: 0 to 29%; pest or weed control at 70 g/ha [2, 14]: 0 to 29%; pest or weed control at 140 g/ha [2, 14]: 0 to 29%; melting point: 231 to 234 °C

Reference: patent US20170050957A1, “4-AMINO-6-(HETEROCYCLIC)PICOLINATES AND 6-AMINO-2-(HETEROCYCLIC)PYRIMIDINE-4-CARBOXYLATES AND THEIR USE AS HERBICIDES” (Dow AgroSciences LLC, priority 2013, published 2017)
